Data taken from patent publication US12495798B2, “Nicotinamide compound and herbicidal composition comprising compound” (KOREA RESEARCH INSTITUTE OF CHEMICAL TECHNOLOGY, priority 2019, dated 2025).

Key:
Assay type in all cases: in vivo
sorghum [1] = test: Herbicidal activity test against upland field weeds (foliar treatment test); set-up: key to Foliar treatment herbicidal activity, Sorghum: 0 (no control); 100 (complete control); settings: 50 g ai/ha, scale 0-100; for plant injury at 50 g/ha: Sorghum
Outline: (§1)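 Greenhouse-grown plants (30±5 °C, 14/10 h light/dark) foliar hand-sprayed with compound in 50% acetone, 0.1% Tween-20 at 50 or 75 g a.i./ha. Control visually scored 0 (none) to 100 (complete) versus untreated after 14 days, or 21 days if needed.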

barnyard grass [2] = test: as above; set-up: key to Foliar treatment herbicidal activity, barnyard grass: 0 (no control); 100 (complete control); settings: 50 g ai/ha, scale 0-100
Outline: as §1

crabgrass [3] = test: as above; set-up: key to Foliar treatment herbicidal activity, Crabgrass: 0 (no control); 100 (complete control); settings: 50 g ai/ha, scale 0-100
Outline: as §1

fall panicum [4] = test: as above; set-up: key to Foliar treatment herbicidal activity, Fall panicum: 0 (no control); 100 (complete control); settings: 50 g ai/ha, scale 0-100; for pest or weed control at 50 g/ha: Panicum dichotomiflorum
Outline: as §1

black nightshade [5] = test: as above; set-up: key to Foliar treatment herbicidal activity, black nightshade: 0 (no control); 100 (complete control); settings: 50 g ai/ha, scale 0-100; for pest or weed control at 50 g/ha: Solanum nigrum
Outline: as §1

indian jointvetch [6] = test: as above; set-up: key to Foliar treatment herbicidal activity, Indian jointvetch: 0 (no control); 100 (complete control); settings: 50 g ai/ha, scale 0-100
Outline: as §1

velvetleaf [7] = test: as above; set-up: key to Foliar treatment herbicidal activity, velvet leaf: 0 (no control); 100 (complete control); settings: 50 g ai/ha; for pest or weed control at 50 g/ha: Abutilon theophrasti, scale 0-100, read-out: Foliar treatment herbicidal activity, velvet leaf; for Foliar treatment herbicidal activity, velvet leaf: scale 0-100
Outline: as §1

cocklebur = test: as above; set-up: key to Foliar treatment herbicidal activity, Cocklebur: 0 (no control); 100 (complete control); settings: 50 g ai/ha, scale 0-100; for pest or weed control at 50 g/ha: Xanthium strumarium
Outline: as §1

bindweed [8] = test: as above; set-up: key to Foliar treatment herbicidal activity, Bindweed: 0 (no control); 100 (complete control); settings: 50 g ai/ha, scale 0-100
Outline: as §1

sorghum [9] = test: Herbicidal activity test against upland field weeds (soil treatment test); set-up: key to Soil treatment herbicidal activity, Sorghum: 0 (no control); 100 (complete control); settings: 50 g ai/ha, scale 0 (no control) to 100 (complete control)
Procedure: (§2) Experimental Example 2: Herbicidal Activity Test Against Upland Field Weeds (Soil Treatment Test) Soil treatment was performed as follows: After filling a square plastic pot having a surface area of 350 cm^2 with sandy loam mixed with 1 g per pot (350 cm^2) of horticultural mixed fertilizer (N:P:K=11:10:11), seeds (10˜15 grains) or rootstocks (2 pieces) of 5 kinds of grassy weeds of sorghum, barnyard grass, quack grass, crabgrass, fall panicum, and 5 kinds of broadleaf weeds of black nightshade, indian jointvetch, velvetleaf, cocklebur, bindweed, which had been stored in a low temperature (6° C.), were sown. The day after sowing, test compound solutions were made by diluting with a preparation solution (including 50% acetone, 0.1% Tween-20) so that the final treatment amount of the test compounds was 50 or 75 g a.i./ha. The prepared test compound solution was used for treating soil surface by hand-spraying 14 mL per pot in a fume hood. After the treatment, it was managed under the same greenhouse conditions (average temperature 30±5° C., light/dark=14/10 hours), and after 14 days (after 21 days if necessary), the external symptoms and efficacy were investigated according to the scale of 0 (no control) to 100 (complete control). The results of Table 8 were obtained by evaluating weed control value to the untreated control by conducting visual assessment.

barnyard grass [10] = test: as above; set-up: key to Soil treatment herbicidal activity, barnyard grass: 0 (no control); 100 (complete control); settings: 50 g ai/ha, scale 0 (no control) to 100 (complete control)
Procedure: as §2

quack grass [11] = test: as above; set-up: key to Soil treatment herbicidal activity, quack grass: 0 (no control); 100 (complete control); settings: 50 g ai/ha, scale 0 (no control) to 100 (complete control)
Procedure: as §2

crabgrass [12] = test: as above; set-up: key to Soil treatment herbicidal activity, Crabgrass: 0 (no control); 100 (complete control); settings: 50 g ai/ha, scale 0 (no control) to 100 (complete control)
Procedure: as §2

fall panicum [13] = test: as above; set-up: key to Soil treatment herbicidal activity, Fall panicum: 0 (no control); 100 (complete control); settings: 50 g ai/ha, scale 0 (no control) to 100 (complete control)
Procedure: as §2

black nightshade [14] = test: as above; set-up: key to Soil treatment herbicidal activity, black nightshade: 0 (no control); 100 (complete control); settings: 50 g ai/ha, scale 0 (no control) to 100 (complete control)
Procedure: as §2

indian jointvetch [15] = test: as above; set-up: key to Soil treatment herbicidal activity, Indian jointvetch: 0 (no control); 100 (complete control); settings: 50 g ai/ha, scale 0 (no control) to 100 (complete control)
Procedure: as §2

velvetleaf [16] = test: as above; set-up: key to Soil treatment herbicidal activity, velvet leaf: 0 (no control); 100 (complete control); settings: 50 g ai/ha, scale 0 (no control) to 100 (complete control)
Procedure: as §2

bindweed [17] = test: as above; set-up: key to Soil treatment herbicidal activity, Bindweed: 0 (no control); 100 (complete control); settings: 50 g ai/ha, scale 0 (no control) to 100 (complete control)
Procedure: as §2

quack grass [18] = test: Herbicidal activity test against upland field weeds (foliar treatment test); set-up: key to Foliar treatment herbicidal activity, quack grass: 0 (no control); 100 (complete control); settings: 50 g ai/ha, scale 0-100
Outline: as §1

Structure (SMILES): CN(C(=O)c1ccc(C(F)(F)F)nc1OCc1nnnn1C(F)F)c1nnnn1C [Compound No. 1-8, 2-((1-(difluoromethyl)-1H-tetrazol-5-yl)methoxy)-N-methyl-N-(1-methyl-1H-tetrazol-5-yl)-6-(trifluoromethyl)nicotinamide]
- Foliar treatment herbicidal activity, Sorghum (sorghum [1]): 0
- Foliar treatment herbicidal activity, barnyard grass (barnyard grass [2]): 0
- Foliar treatment herbicidal activity, Crabgrass (crabgrass [3]): 0
- Foliar treatment herbicidal activity, Fall panicum (fall panicum [4]): 0
- pest or weed control at 50 g/ha (black nightshade [5]): 98%
- pest or weed control at 50 g/ha (indian jointvetch [6]): 70%
- pest or weed control at 50 g/ha (velvetleaf [7]): 20%
- pest or weed control at 50 g/ha (cocklebur): 20%
- pest or weed control at 50 g/ha (bindweed [8]): 40%
- Soil treatment herbicidal activity, Sorghum (sorghum [9]): 0
- Soil treatment herbicidal activity, barnyard grass (barnyard grass [10]): 0
- Soil treatment herbicidal activity, quack grass (quack grass [11]): 0
- pest or weed control at 50 g/ha (crabgrass [12]; Digitaria sanguinalis): 30%
- Soil treatment herbicidal activity, Fall panicum (fall panicum [13]): 0
- Soil treatment herbicidal activity, black nightshade (black nightshade [14]): 0
- Soil treatment herbicidal activity, Indian jointvetch (indian jointvetch [15]): 100
- Soil treatment herbicidal activity, velvet leaf (velvetleaf [16]): 100
- pest or weed control at 50 g/ha (bindweed [17]): 50%

Structure (SMILES): CC(OC(=O)OC1CCCCC1)N(C(=O)c1ccc(C(F)(F)F)nc1COCc1nnn(C)n1)c1nnnn1C (stereo not shown) [Compound No. 4-11, cyclohexyl(1-(N-(1-methyl-1H-tetrazol-5-yl)-2-(((2-methyl-2H-tetrazol-5-yl)methoxy)methyl)-6-(trifluoromethyl)nicotinamido)ethyl)carbonate]
- Foliar treatment herbicidal activity, Sorghum (sorghum [1]): 60
- Foliar treatment herbicidal activity, barnyard grass (barnyard grass [2]): 98
- Foliar treatment herbicidal activity, quack grass (quack grass [18]): 0
- Foliar treatment herbicidal activity, Crabgrass (crabgrass [3]): 98
- Foliar treatment herbicidal activity, Fall panicum (fall panicum [4]): 95
- Foliar treatment herbicidal activity, black nightshade (black nightshade [5]): 100
- Foliar treatment herbicidal activity, Indian jointvetch (indian jointvetch [6]): 98
- Foliar treatment herbicidal activity, velvet leaf (velvetleaf [7]): 100
- Foliar treatment herbicidal activity, Cocklebur (cocklebur): 98
- Foliar treatment herbicidal activity, Bindweed (bindweed [8]): 100
- Soil treatment herbicidal activity, Sorghum (sorghum [9]): 0
- Soil treatment herbicidal activity, barnyard grass (barnyard grass [10]): 100
- Soil treatment herbicidal activity, quack grass (quack grass [11]): 0
- Soil treatment herbicidal activity, Crabgrass (crabgrass [12]): 100
- Soil treatment herbicidal activity, Fall panicum (fall panicum [13]): 60
- Soil treatment herbicidal activity, black nightshade (black nightshade [14]): 100
- Soil treatment herbicidal activity, Indian jointvetch (indian jointvetch [15]): 40
- Soil treatment herbicidal activity, velvet leaf (velvetleaf [16]): 100
- Soil treatment herbicidal activity, Bindweed (bindweed [17]): 0

Structure (SMILES): CN(Cc1nnnn1C)c1nc(C(F)(F)F)ccc1C(=O)Nc1nnnn1C [Compound No. 1-27, 2-(methyl((1-methyl-1H-tetrazol-5-yl)methyl)amino)-N-(1-methyl-1H-tetrazol-5-yl)-6-(trifluoromethyl)nicotinamide]
- plant injury at 50 g/ha (sorghum [1]): 80%
- Foliar treatment herbicidal activity, barnyard grass (barnyard grass [2]): 100
- pest or weed control at 50 g/ha (quack grass [18]): 30%
- Foliar treatment herbicidal activity, Crabgrass (crabgrass [3]): 100
- pest or weed control at 50 g/ha (fall panicum [4]): 80%
- Foliar treatment herbicidal activity, Indian jointvetch (indian jointvetch [6]): 100
- Foliar treatment herbicidal activity, velvet leaf (velvetleaf [7]): 100
- Foliar treatment herbicidal activity, Cocklebur (cocklebur): 100
- Foliar treatment herbicidal activity, Bindweed (bindweed [8]): 100
- Soil treatment herbicidal activity, Sorghum (sorghum [9]): 100
- Soil treatment herbicidal activity, barnyard grass (barnyard grass [10]): 100
- pest or weed control at 50 g/ha (quack grass [11]): 20%
- Soil treatment herbicidal activity, Crabgrass (crabgrass [12]): 100
- Soil treatment herbicidal activity, Fall panicum (fall panicum [13]): 100
- Soil treatment herbicidal activity, black nightshade (black nightshade [14]): 100
- Soil treatment herbicidal activity, Indian jointvetch (indian jointvetch [15]): 100
- Soil treatment herbicidal activity, velvet leaf (velvetleaf [16]): 100
- pest or weed control at 50 g/ha (bindweed [17]): 80%

Structure (SMILES): Cn1cnc(COc2nc(C(F)(F)F)ccc2C(=O)Nc2nnnn2C)n1 [Compound No. 2-43, 2-((1-methyl-1H-1,2,4-triazol-3-yl)methoxy)-N-(1-methyl-1H-tetrazol-5-yl)-6-(trifluoromethyl)nicotinamide]
- plant injury at 50 g/ha (sorghum [1]): 20%
- pest or weed control at 50 g/ha (barnyard grass [2]; Echinochloa crus-galli): 60%
- Foliar treatment herbicidal activity, quack grass (quack grass [18]): 0
- pest or weed control at 50 g/ha (crabgrass [3]; Digitaria sanguinalis): 30%
- pest or weed control at 50 g/ha (fall panicum [4]): 50%
- pest or weed control at 50 g/ha (black nightshade [5]): 95%
- pest or weed control at 50 g/ha (indian jointvetch [6]): 20%
- pest or weed control at 50 g/ha (velvetleaf [7]): 40%
- pest or weed control at 50 g/ha (cocklebur): 20%
- pest or weed control at 50 g/ha (bindweed [8]): 30%
- Soil treatment herbicidal activity, Sorghum (sorghum [9]): 0
- Soil treatment herbicidal activity, barnyard grass (barnyard grass [10]): 0
- Soil treatment herbicidal activity, quack grass (quack grass [11]): 0
- Soil treatment herbicidal activity, Crabgrass (crabgrass [12]): 0
- Soil treatment herbicidal activity, Fall panicum (fall panicum [13]): 0
- pest or weed control at 50 g/ha (indian jointvetch [15]): 20%
- pest or weed control at 50 g/ha (velvetleaf [16]; Abutilon theophrasti, read-out: Soil treatment herbicidal activity, velvet leaf): 30%
- Soil treatment herbicidal activity, Bindweed (bindweed [17]): 0
